Data: publication PMC9268153 (2022)

Legend:
[1] = tested on: G1-r23nt (RNA, G4) UAGGGUUAGGGUUAGGGUUAGGG; experiment: CD melting; conditions: 5 mM KCl; 50 mM Tris-HCl pH 7.4; 4.5 μM compound, 1.5 μM nucleic acid
[2] = tested on: ds-oligo (DNA, duplex) GGGAGGTTTCGC/GCGAAACCTCCC; experiment: UV-Vis titration, Scatchard; conditions: 100 mM KCl; 50 mM Tris-HCl pH 7.4, 25 °C
[3] = tested on: c-myc AP sites (DNA, G4, abasic (d-spacer) at 7 and 16) TGAGGGNGGGGAGGGNGGGGAA; experiment: ITC; conditions: 50 mM potassium phosphate (K+); 50 mM KH2PO4-K2HPO4 pH 7.0, 25 °C
[4] = tested on: c-kit (DNA, G4) AGGGAGGGCGCTGGGAGGAGGG; experiment: CD spectral change; conditions: 100 mM KCl; 50 mM Tris-HCl pH 7.4, 25 °C; 1.5 μM DNA, up to 4.5 μM compound
[5] = tested on: Telomere G1 (Telomere G4) (DNA, G4) TAGGGTTAGGGTTAGGGTTAGGG; experiment: CD melting; conditions: 100 mM KCl; 50 mM Tris-HCl pH 7.4; 4.5 μM compound, 1.5 μM nucleic acid
[6] = tested on: G1-r12nt (RNA, G4) UAGGGUUAGGGU; experiment: CD melting; conditions: 100 mM KCl; 50 mM KH2PO4-K2HPO4 pH 7.0; 4.5 μM compound, 1.5 μM nucleic acid
[7] = tested on: Telomere G1 (Telomere G4) (DNA, G4) TAGGGTTAGGGTTAGGGTTAGGG; experiment: UV-Vis titration, Scatchard; conditions: 100 mM KCl; 50 mM Tris-HCl pH 7.4, 25 °C
[8] = tested on: Telomere G1 (Telomere G4) (DNA, G4) TAGGGTTAGGGTTAGGGTTAGGG; experiment: ITC; conditions: 50 mM potassium phosphate (K+), 50 mM KH2PO4-K2HPO4 pH 7.0, 25 °C; for binding: n.d. (not detected), titrant up to 100 μM
[9] = tested on: G1-r12nt (RNA, G4) UAGGGUUAGGGU; experiment: ITC; conditions: 50 mM potassium phosphate (K+); 50 mM KH2PO4-K2HPO4 pH 7.0, 25 °C
[10] = tested on: G1-r23nt (RNA, G4) UAGGGUUAGGGUUAGGGUUAGGG; experiment: ITC; conditions: 50 mM potassium phosphate (K+); 50 mM KH2PO4-K2HPO4 pH 7.0, 25 °C
[11] = tested on: ds-oligo (DNA, duplex) GGGAGGTTTCGC/GCGAAACCTCCC; experiment: ITC; conditions: 50 mM potassium phosphate (K+); 50 mM KH2PO4-K2HPO4 pH 7.0, 25 °C; undetectable

SMILES | ΔTm [1] | Ka [2] | Ka [3] | binding [4] | ΔTm [5] | ΔTm [6] | Ka [7] | Ka [8] | binding [9] | Ka [10] | binding [8] | binding [11]
CN(C)CCCN1C(=O)c2ccc3c4c(ccc(c24)C1=O)C(=O)N(CCCN(C)C)C3=O | 19.9 ± 0.1 °C | 3.9 ± 0.1 × 10^5 M^-1 | 2.9 ± 0.2 × 10^5 M^-1 | yes | 5.1 ± 1.1 °C | 6.1 ± 0.4 °C | 9.5 ± 0.9 × 10^5 M^-1 | 9.5 ± 0.6 × 10^5 M^-1 | – | – | – | –
CN(CCCN1C(=O)c2ccc3c4c(ccc(c24)C1=O)C(=O)N(CCCN(C)C[C@H]1O[C@@H]2O[C@H]4[C@H](O)[C@@H](O)[C@@H](O[C@H]5[C@H](O)[C@@H](O)[C@@H](O[C@H]6[C@H](O)[C@@H](O)[C@@H](O[C@H]7[C@H](O)[C@@H](O)[C@@H](O[C@H]8[C@H](O)[C@@H](O)[C@@H](O[C@H]9[C@H](O)[C@@H](O)[C@@H](O[C@H]1[C@H](O)[C@H]2O)O[C@@H]9CO)O[C@@H]8CO)O[C@@H]7CO)O[C@@H]6CO)O[C@@H]5CO)O[C@@H]4CO)C3=O)C[C@H]1O[C@@H]2O[C@H]3[C@H](O)[C@@H](O)[C@@H](O[C@H]4[C@H](O)[C@@H](O)[C@@H](O[C@H]5[C@H](O)[C@@H](O)[C@@H](O[C@H]6[C@H](O)[C@@H](O)[C@@H](O[C@H]7[C@H](O)[C@@H](O)[C@@H](O[C@H]8[C@H](O)[C@@H](O)[C@@H](O[C@H]1[C@H](O)[C@H]2O)O[C@@H]8CO)O[C@@H]7CO)O[C@@H]6CO)O[C@@H]5CO)O[C@@H]4CO)O[C@@H]3CO | 10.3 ± 0.3 °C | – | 2.2 ± 0.3 × 10^5 M^-1 | – | < 0.5 °C | 2.1 ± 0.9 °C | – | – | yes | 19.0 ± 2.2 × 10^5 M^-1 | no | no
O=C(CN1C(=O)c2ccc3c4c(ccc(c24)C1=O)C(=O)N(CC(=O)NCCNC[C@H]1O[C@@H]2O[C@H]4[C@H](O)[C@@H](O)[C@@H](O[C@H]5[C@H](O)[C@@H](O)[C@@H](O[C@H]6[C@H](O)[C@@H](O)[C@@H](O[C@H]7[C@H](O)[C@@H](O)[C@@H](O[C@H]8[C@H](O)[C@@H](O)[C@@H](O[C@H]9[C@H](O)[C@@H](O)[C@@H](O[C@H]1[C@H](O)[C@H]2O)O[C@@H]9CO)O[C@@H]8CO)O[C@@H]7CO)O[C@@H]6CO)O[C@@H]5CO)O[C@@H]4CO)C3=O)NCCNC[C@H]1O[C@@H]2O[C@H]3[C@H](O)[C@@H](O)[C@@H](O[C@H]4[C@H](O)[C@@H](O)[C@@H](O[C@H]5[C@H](O)[C@@H](O)[C@@H](O[C@H]6[C@H](O)[C@@H](O)[C@@H](O[C@H]7[C@H](O)[C@@H](O)[C@@H](O[C@H]8[C@H](O)[C@@H](O)[C@@H](O[C@H]1[C@H](O)[C@H]2O)O[C@@H]8CO)O[C@@H]7CO)O[C@@H]6CO)O[C@@H]5CO)O[C@@H]4CO)O[C@@H]3CO | 10.6 ± 0.6 °C | – | 2.0 ± 0.8 × 10^5 M^-1 | – | < 0.5 °C | < 0.5 °C | – | – | yes | 12.3 ± 2.2 × 10^5 M^-1 | no | no
